Experimental data as given in PMC8876625 (Pharmaceuticals, 2022).
Counter-ions that a name gives are not always drawn.

How the values were obtained:
[1] = Static permeation study with 16HBE cell monolayer on porous membrane; type: in vitro ADME, human; conditions: human; static, with 16HBE lung cell barrier, 100 µM apical, 72 h, model parameter estimate; read-out: P12, apparent permeability from the apical to the basolateral compartment and vice versa (converted)
Procedure: (§1) The bronchial cell line 16HBE was cultivated in Dulbecco's modified Eagle medium (DMEM/F12 with L-glutamine and HEPES; Gibco 11039-021, Thermo Fisher Scientific, Waltham, MA, USA), supplemented with 10% fetal bovine serum (FBS, […][…], Sigma Aldrich, St. Louis, MO, USA), 100 U/mL penicillin, and 100 μg/mL streptomycin (Gibco 15140-122, Thermo Fisher Scientific). The cells were cultivated in a humidified atmosphere at 37 °C and 5% CO2. The bronchial cell line 16HBE was obtained from Dr. […] (Cardiovascular Research Institute, University of California). […] The cells were cultivated in a 24-well plate (662160, Greiner bio-one, Frickenhausen, Germany) at 37 °C for five days under a physiological pH in the range of 7.0-7.4 with one CCM exchange after two days. […] The basolateral compartment was filled with fresh CCM. After model substance exposure, total apical, and basolateral CCM were collected each in a 1.5 mL tube ([…] Biotech GmbH & Co. […] For each time point, a separate cell culture insert was used. Samples were then stored at 4 °C until further analysis via HPLC. After the static and fluidic permeation studies, the model substances in the apical and basolateral CCM were quantified via HPLC measurements as described in […] et al.. […] The mobile phase consisted of three running agents: water (solvent A; sterile filtered 0.2 μm pore), acetonitrile (Solvent B; J.T. Baker), and 0.1% trifluoroacetic acid (TFA) in water (Solvent C; Fisher Scientific). The flow rate was set to 0.4 mL/min with 5 μL of the sample injected. […] For detection, a diode array detector (DAD) was used at a wavelength of 275 nm. To model the static in vitro permeation experiments (control and cell experiments), a bidirectional single-barrier model was implemented as a two-compartment ODE system. […] Thereby, […],i reflects the compound permeability through all present permeation barriers in the respective experimental setup, such as unstirred water layers, the porous filter membrane, and cell monolayer (apparent permeability). […] During parameter estimation in the static permeation study, permeability parameters ([…],i) were estimated by fitting the model-simulated concentrations to the observed experimental data via first-order conditional estimation method with interaction (FOCE-I) in […]®, using a combined proportional and additive residual error model (Equation (6)).

[2] = test system: 16HBE cells; assay: as above; type: in vitro ADME, human; conditions: for potential metabolism in the pulmonary epithelial cells: static cellular experiments, from mass balance; for active transport in 16HBE cells: static cellular study, equilibrium with similar apical and basolateral concentrations
Procedure: as §1

[3] = test system: human bronchial epithelial cell line Calu-3; design: method as in earlier work; conditions: Calu-3 cells; ref 5 (Mathias et al.); cited from earlier work
[4] = Static permeation study without lung cells (control, porous membrane only); type: in vitro ADME; conditions: not told, control without lung cell barrier (porous membrane 0.4 µm, 0.6 cm^2), 100 µM apical, model parameter estimate, read-out: P12, apparent permeability from the apical to the basolateral compartment and vice versa (converted)
Procedure: The cells were cultivated in a 24-well plate (662160, Greiner bio-one, Frickenhausen, Germany) at 37 °C for five days under a physiological pH in the range of 7.0-7.4 with one CCM exchange after two days. […] The basolateral compartment was filled with fresh CCM. After model substance exposure, total apical, and basolateral CCM were collected each in a 1.5 mL tube (Kisker Biotech GmbH & Co. […] For each time point, a separate cell culture insert was used. Samples were then stored at 4 °C until further analysis via HPLC. […] After the static and fluidic permeation studies, the model substances in the apical and basolateral CCM were quantified via HPLC measurements as described in Elberskirch et al.. […] Separation was performed using a Poroshell 120 EC-C18 column (2.1 × 100 mm, 2.7 μm; 695775-902, Agilent Technologies) connected to a guard column (Poroshell 120 EC-C18, 2.1 × 5 mm, 2.7 μm, Agilent Technologies). The mobile phase consisted of three running agents: water (solvent A; sterile filtered 0.2 μm pore), acetonitrile (Solvent B; J.T. Baker), and 0.1% trifluoroacetic acid (TFA) in water (Solvent C; Fisher Scientific). The flow rate was set to 0.4 mL/min with 5 μL of the sample injected. […] For detection, a diode array detector (DAD) was used at a wavelength of 275 nm. […]

[5] = Fluidic permeation study (QuasiVivo QV600) with 16HBE cell barrier; type: in vitro ADME; conditions: human; fluidic cell experiment, 200 µL/min; static P12 multiplied by factor F; read-out: P16, apparent permeability between the apical and basolateral chambers in the fluidic system (converted)
Procedure: Fluidic permeation studies were performed in the MCmB QuasiVivo® […]), which was assembled according to the manufacturer's instructions. An apical and basolateral flow with a flow rate of 200 μL/min was used (Figure 7b). […] The apical circuit consisted of the apical reservoir bottle, the apical part of the pulmonary chamber, the pump, a three-way cock (B.Braun 4095111; dosing/sampling port; in order of medium flow), and connecting tubes. The basolateral circuit comprised the basolateral reservoir bottle, the basolateral part of the pulmonary chamber, a second chamber allowing the integration of additional cell tissues, the pump, the basolateral sampling port (in order of medium flow), and connecting tubes (Figure 8). Different tubing ([…]-2 Tubing set; […] VWR 228-1066, Radnor, PA, USA) was used to establish the optimal connection between the reservoir bottles, cell chambers, pump, and sampling ports. For the in vitro cell permeation studies, 4.3 × 10^4 16HBE cells were seeded in a cell culture insert with a pore size of 0.4 μm and a growth area of 0.6 cm^2 (PIHP 012 50, Merck Millipore) and cultivated at 37 °C for five days. […] After the static and fluidic permeation studies, the model substances in the apical and basolateral CCM were quantified via HPLC measurements as described in Elberskirch et al.. […]

[6] = cited from earlier work

SMILES	Papp A→B at 72 h, 100 µM [1]	potential metabolism in the pulmonary epithelial cells [2]	active transport in 16HBE cells [2]	apparent permeability (published value) [3]	Papp A→B at 72 h, 100 µM [4]	Papp at 72 h, 100 µM [5]	logP [6]
Cn1c(=O)c2c(ncn2C)n(C)c1=O [caffeine]	43.7 ×10⁻⁶ cm/s	negligible	neither caffeine nor diclofenac were subject to active transport	21.8 ×10⁻⁶ cm/s	54.5 ×10⁻⁶ cm/s	14.9 ×10⁻⁶ cm/s	
O=C(O)Cc1ccccc1Nc1c(Cl)cccc1Cl [diclofenac, diclofenac sodium salt]	23 ×10⁻⁶ cm/s	negligible	neither caffeine nor diclofenac were subject to active transport		41.8 ×10⁻⁶ cm/s	3.92 ×10⁻⁶ cm/s	~ 4
